Assay results as given in patent US20190322676A1, “CERAMIDE GALACTOSYLTRANSFERASE INHIBITORS FOR THE TREATMENT OF DISEASE” (BioMarin Pharmaceutical Inc., priority 2016, published 2019).
Where a name gives a salt, the structure may show the parent alone.

Legend:
Format in all cases: biochemical
[1] = biological target: T1, human CGT (ceramide galactosyltransferase), CHO/CGT lysate (Homo sapiens, UniProt Q16880); experiment: CGT enzyme assay, LC-MS/MS readout (Table 1 ranges without asterisk); conditions: LC-MS/MS method (range without asterisk)
T1 construct: Full-length human CGT cDNA was cloned into the BamH1/Xho1 site of pcDNA3.1 (+); expressed in transfected cells; host or cells: Chinese hamster ovary (CHO) cells; lysate prepared with M-PER
T1 sequence (Q16880 21-541): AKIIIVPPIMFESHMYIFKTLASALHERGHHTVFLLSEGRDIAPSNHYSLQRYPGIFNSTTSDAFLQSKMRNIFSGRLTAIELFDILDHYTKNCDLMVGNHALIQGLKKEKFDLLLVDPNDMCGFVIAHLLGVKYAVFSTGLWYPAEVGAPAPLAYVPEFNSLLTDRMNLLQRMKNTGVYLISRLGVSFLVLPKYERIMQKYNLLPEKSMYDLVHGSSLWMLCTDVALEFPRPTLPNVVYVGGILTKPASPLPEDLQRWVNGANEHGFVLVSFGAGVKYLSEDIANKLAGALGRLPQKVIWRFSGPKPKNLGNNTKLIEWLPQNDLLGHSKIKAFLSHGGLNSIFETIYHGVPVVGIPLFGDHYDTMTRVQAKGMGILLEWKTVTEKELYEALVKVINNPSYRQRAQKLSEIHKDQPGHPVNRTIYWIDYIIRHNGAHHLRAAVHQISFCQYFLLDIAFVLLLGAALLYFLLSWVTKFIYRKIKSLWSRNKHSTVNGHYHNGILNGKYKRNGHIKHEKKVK
Procedure: Full-length human CGT cDNA was cloned into the BamH1/Xho1 site of pcDNA3.1 (+) mammalian expression vector (V90-20, Invitrogen, Carlsbad, Calif.) and the plasmid was transfected into Chinese hamster ovary (CHO) cells. Lysate was prepared using M-PER (Mammalian Protein Extraction Reagent, ThermoFisher Scientific, Grand Island, N.Y.) in the presence of a protease inhibitor cocktail (P8340, Sigma, Saint Louis, Mo.). Each 100 mm dish (100% confluent, approximately 1×10^7 cells) was lysed with 250 μL of M-PER containing protease inhibitors. Protein concentration was determined using a Pierce BCA protein assay kit (ThermoFisher Scientific). Four micrograms of CHO/CGT lysate was incubated with various concentrations of a compound (0.001 μM-50 μM) in 10 mM HEPES (pH 7.2) containing 35 μM dioleoylphosphatidylcholine, 5 mM MgCl2, 5 mM MnCl2, 1% BSA, 15 mM KCl, 1 mM EGTA, 8 mM CHAPS, 10 μM C6-NBD-dihydro-ceramide and 17.5 μM UDP-galactose in a final reaction volume of 20 μL at 37° C. for 1 hour. The final concentration of DMSO was 0.5% in both compound-treated and mock-treated samples. Tween 80 (0.01%) was optionally added to the reaction mixture to help solubilize the compounds. Each individual reaction was diluted with 80 μL of methanol:acetronitrile (1:3) containing 5 μM N-docdecanoyl-NBD-galactosylceramide (internal standard) to stop the reaction. 200 μL H2O:acetonitile (1:1) was added to precipitate the protein. After sufficient mixing, the plates were centrifuged at 2469 g for 38 minutes, 200 μL of supernatant was transferred to a LC/MS 96-deep well plate and a second spin was performed at 2469 g for 10 minutes. The final supernatant was injected in triplicate for RapidFire/MS/MS analysis.
An alternative LC-MS/MS based method was also used. For the LC-MS/MS readout, the CGT assay was identical to the one described above except for the following: […] was used as the CGT enzyme source, C12:0 (2R—OH) ceramide was used as the ceramide substrate and 0.3 μM Cl2 ceramide was used as the internal standard. Tween 80 was not present in the reaction mixture. The final supernatant was injected for LC-MS/MS analysis.
Quantitative analysis using the LC-MS/MS method: The quantitative analysis of C12:0 (2R—OH) ceramide and C12:0 (2R—OH) galactosylceramide by LC-MS/MS was performed on a Shimadzu ultra-fast liquid chromatography (Shimadzu, Japan) coupled with API 4000 mass spectrometer (Applied Biosystems, Concord, Ontario, Canada). Analyst 1.5 software packages (Applied Biosystems) were used to control the LC-MS/MS system, as well as for data acquisition and processing. 10 μL of sample was loaded onto a Luna C18 column (50 mm×2.0 mm, I.D. 3 μm, 100A) (Phenomenex, USA) for chromatographic separation. Mobile phase A consisted of HPLC grade water with 0.1% formic acid (v/v) and mobile phase B consisted of acetonitrile supplemented with 0.1% formic acid (v/v). The separation was achieved using the following gradient program at a flow rate of 0.8 mL/min: the initial mobile phase was 70% B, which was increased in a linear fashion to 95% B in 1.50 min, and then maintained at 95% B until 3.50 min. The mobile phase was then reset to 70% B within 0.01 min, and maintained until 4.50 min. The total run time was 4.50 min. The MS/MS detection was performed in ESI positive mode. The mass transition selected for quantification was m/z 498.5-264.3 for C12:0 (2R—OH) ceramide under the collision energy of 38.8 V, and the mass transition of C12:0 (2R—OH) galactosylceramide was m/z 660.6-264.5 under the collision energy of 51 V. The mass transition of Cl2 ceramide which was used as internal standard was m/z 482.4-264.3 under the collision energy of 33V. Compound IC50 values were calculated using a protocol identical to the one described for the RapidFire method (see Table 1, where data ranges without an asterix correspond to analysis using the LC-MS/MS method).
Using the above CGT enzyme and CGT cellular assays, the compounds of Table 1 were tested. […]

[2] = biological target: T1, human CGT (ceramide galactosyltransferase), CHO/CGT lysate; experiment: CGT enzyme assay, RapidFire/MS/MS readout with 0.01% Tween added (Table 1 ranges with two asterisks **); conditions: CGT enzyme assay, RapidFire/MS/MS method with 0.01% Tween added (range with two asterisks **)
Outline: (§1)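 Lysate (4 μg) of CHO cells transfected with full-length human CGT incubated 1 h at 37 °C with compound (0.001–50 μM) in pH 7.2 HEPES buffer with 10 μM C6-NBD-dihydro-ceramide, 17.5 μM UDP-galactose, Mg2+/Mn2+, CHAPS, BSA, 0.5% DMSO; ** set also contained 0.01% Tween 80. Product quantified by RapidFire/MS/MS, normalized to internal standard; IC50 from sigmoidal variable-slope fits.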

[3] = biological target: T1, human CGT (ceramide galactosyltransferase), CHO/CGT lysate; experiment: CGT enzyme assay, RapidFire/MS/MS readout (Table 1 ranges with one asterisk *); conditions: RapidFire method (range with one asterisk *)
Outline: as §1

| SMILES | IC50 [1] | IC50 [2] | IC50 [3] |
| --- | --- | --- | --- |
| CC(C)Oc1ccc2cc(S(=O)(=O)N[C@H](C(=O)N3CCC(N)CC3)C(F)(F)c3ccc(Br)cc3)ccc2c1Br [Compound 119-1, (R)—N-(3-(4-aminopiperidin-1-yl)-1-(4-bromophenyl)-1,1-difluoro-3-oxopropan-2-yl)-5-bromo-6-isopropoxynaphthalene-2-sulfonamide] | 1 to 10 µM | – | – |
| CC(C)COc1ccc2cc(S(=O)(=O)N[C@H](C(=O)N3C4CCC3CC(N)C4)C(F)(F)c3ccc(Br)cc3)ccc2c1 (stereo partly drawn) [Compound 7-1, N-((2R)-3-(3-amino-8-azabicyclo[3.2.1]octan-8-yl)-1-(4-bromophenyl)-1,1-difluoro-3-oxopropan-2-yl)-6-isobutoxynaphthalene-2-sulfonamide] | 1 to 10 µM | – | – |
| CC(C)Oc1ccc2cc(CCS(=O)(=O)NC(C(=O)N3C4CCC3CC(N)C4)C(F)(F)c3ccc(Br)cc3)ccc2c1 (centres unmarked) [Compound 4, N-(3-(3-amino-8-azabicyclo[3.2.1]octan-8-yl)-1-(4-bromophenyl)-1,1-difluoro-3-oxopropan-2-yl)-2-(6-isopropoxynaphthalen-2-yl)ethanesulfonamide trifluoroacetate] | 10 to 30 µM | – | – |
| NC1CC2CCC(C1)N2C(=O)C(NS(=O)(=O)c1ccc(-c2ccc(F)cc2)cc1)C(F)(F)c1ccc(Br)cc1 (centres unmarked) [Compound 3, N-(3-(3-amino-8-azabicyclo[3.2.1]octan-8-yl)-1-(4-bromophenyl)-1,1-difluoro-3-oxopropan-2-yl)-4′-fluoro-[1,1′-biphenyl]-4-sulfonamide] | 10 to 30 µM | – | – |
| CC(C)Oc1ccc2cc([C@H](O)C(=O)N[C@@H](C(=O)N3C4CCC3CC(N)C4)C(F)(F)c3ccc(Br)cc3)ccc2c1 (stereo partly drawn) [Compound 19-6, (2S)—N-((2S)-3-(3-amino-8-azabicyclo[3.2.1]octan-8-yl)-1-(4-bromophenyl)-1,1-difluoro-3-oxopropan-2-yl)-2-hydroxy-2-(6-isopropoxynaphthalen-2-yl)acetamide trifluoroacetate] | 30 to 100 µM | – | – |
| NC1CC2CCC(C1)N2C(=O)[C@H](NS(=O)(=O)c1ccc(OCCC2CCCCC2)cc1)C(F)(F)c1ccc(Br)cc1 (stereo partly drawn) [Compound 26-2, N-((2S)-3-(3-amino-8-azabicyclo[3.2.1]octan-8-yl)-1-(4-bromophenyl)-1,1-difluoro-3-oxopropan-2-yl)-4-(2-cyclohexylethoxy)benzenesulfonamide trifluoroacetate] | 30 to 100 µM | – | – |
| NC1CCN(C(=O)[C@@H](NS(=O)(=O)c2ccc3cc(OC4CCCC4)ccc3c2)C(F)(F)c2ccc(-c3ccc(Cl)cc3)cc2)CC1 [Compound 91-1, (R)—N-(3-(4-aminopiperidin-1-yl)-1-(4′-chloro-[1,1′-biphenyl]-4-yl)-1,1-difluoro-3-oxopropan-2-yl)-6-(cyclopentyloxy)naphthalene-2-sulfonamide trifluoroacetate] | – | < 1 µM | < 1 µM |
| NC1CCN(C(=O)[C@H](NS(=O)(=O)c2ccc(OCC3CCCCC3)cc2)C(F)(F)c2ccc(-c3ccc(Cl)cc3)cc2)CC1 [Compound 96-2, (S)—N-(3-(4-aminopiperidin-1-yl)-1-(4′-chloro-[1,1′-biphenyl]-4-yl)-1,1-difluoro-3-oxopropan-2-yl)-4-(cyclohexylmethoxy) benzenesulfonamide trifluoroacetate] | – | 30 to 100 µM | 30 to 100 µM |
| NC1CC2CCC(C1)N2C(=O)[C@H](NS(=O)(=O)c1ccc2cc(OC3CCCC3)ccc2c1)C(F)(F)c1ccc(-c2ccc(Cl)cc2)cc1 (stereo partly drawn) [Compound 48-2, N-((2S)-3-(3-amino-8-azabicyclo[3.2.1]octan-8-yl)-1-(4′-chloro-[1,1′-biphenyl]-4-yl)-1,1-difluoro-3-oxopropan-2-yl)-6-(cyclopentyloxy)naphthalene-2-sulfonamide trifluoroacetate] | – | 1 to 10 µM | 1 to 10 µM |
| NC1CCN(C(=O)[C@@H](NS(=O)(=O)c2ccc(OCC3CCCCC3)cc2)C(F)(F)c2ccc(-c3ccc(Cl)cc3)cc2)CC1 [Compound 96-1, (R)—N-(3-(4-aminopiperidin-1-yl)-1-(4′-chloro-[1,1′-biphenyl]-4-yl)-1,1-difluoro-3-oxopropan-2-yl)-4-(cyclohexylmethoxy)benzenesulfonamide trifluoroacetate] | – | 1 to 10 µM | 1 to 10 µM |
| NC1CC2CCC(C1)N2C(=O)[C@@H](NS(=O)(=O)c1ccc2cc(OC3CCCC3)ccc2c1)C(F)(F)c1ccc(-c2ccc(Cl)cc2)cc1 (stereo partly drawn) [Compound 48-1, N-((2R)-3-(3-amino-8-azabicyclo[3.2.1]octan-8-yl)-1-(4′-chloro-[1,1′-biphenyl]-4-yl)-1,1-difluoro-3-oxopropan-2-yl)-6-(cyclopentyloxy)naphthalene-2-sulfonamide trifluoroacetate] | – | < 1 µM | < 1 µM |
| NC1CCN(C(=O)[C@H](NS(=O)(=O)c2ccc3cc(OC4CCCC4)ccc3c2)C(F)(F)c2ccc(-c3ccc(Cl)cc3)cc2)CC1 [Compound 91-2, (S)—N-(3-(4-aminopiperidin-1-yl)-1-(4′-chloro-[1,1′-biphenyl]-4-yl)-1,1-difluoro-3-oxopropan-2-yl)-6-(cyclopentyloxy)naphthalene-2-sulfonamide trifluoroacetate] | – | 1 to 10 µM | 1 to 10 µM |
| NC1CC2CCC(C1)N2C(=O)[C@@H](NC(=O)[C@@H](O)c1ccc2cc(OC3CCCC3)ccc2c1)C(F)(F)c1ccc(-c2ccc(Cl)cc2)cc1 (stereo partly drawn) [Compound 136-3, (2S)—N-((2R)-3-(3-amino-8-azabicyclo[3.2.1]octan-8-yl)-1-(4′-chloro-[1,1′-biphenyl]-4-yl)-1,1-difluoro-3-oxopropan-2-yl)-2-(6-(cyclopentyloxy)naphthalen-2-yl)-2-hydroxyacetamide trifluoroacetate] | – | 1 to 10 µM | 1 to 10 µM |
